Values after ≈ are worked out from the molar mass of the structure shown. Marks after values point to notes of the source that are not given here.
Key:
[1] = Accelerated solid-state stability study of Form A; assay type: physicochemical
Description: Solid-state stability evaluation (accelerated conditions) was performed on Form A under conditions of 25° C./60% RH and 40° C./75% RH. The detailed procedure utilized for stability evaluation is listed below:
1) weigh approximately 30 mg of Form A sample into each 3-mL vial;
2) cover the vial with Parafilm® and poke 15 holes on the Parafilm® with a needle;
3) put the vial in a stability chamber of 25° C./60% RH or 40° C./75% RH; and
4) sample for XRPD, TGA, DSC, HPLC purity and assay tests after 2, 4 and 6 weeks and 3 months.

[2] = Dynamic vapor sorption (DVS) of Form A; assay type: physicochemical
Description: Dynamic vapor sorption (DVS) was performed on a Surface Measurement Systems DVS Intrinsic. The relative humidity at 25° C. were calibrated against deliquescence point of LiCl, Mg(NO3)2, and KCl. Sample sizes were between 10-20 mg. Gas and flow rate was nitrogen, 200 mL/min; dm/dt: 0.002%/min.

[3] = Competitive slurry study of forms A to E in water; assay type: physicochemical; details: room temperature, 7 days
Description: A competitive slurry study of all known forms A to E was performed in water at room temperature to understand the thermodynamic stability relationship among these forms. Form A was used to saturate the water before it was filtered to obtain a near-saturated solution. Equal amounts of each form (A to E) were weighed and then mixed with the prepared near-saturated solution to form a new suspension, which was stirred magnetically (˜1000 rpm) at room temperature for 7 days.

[4] = pKa detection by Sirius T3; assay type: physicochemical; details: Sirius T3, range 2.0 to 12.0, in triplicate; read-out: Measured pKa value
Description: A summary of baseline solid state characterization results of crystalline (R)-5-carbamoylpyridin-3-yl-2-methyl-4-(3-(trifluoromethoxy)benzyl)piperazine-1-carboxylate Form A, including pKa, partition coefficient (log D7.4) measurement and 2-hrs equilibrium solubility in FaSSIF and FeSSIF (version 2) are provided herein. […] Log D7.4 was measured with the solvent system of pH 7.4 phosphate buffer and n-octanol by shake-flask method. Meanwhile, 2-hrs equilibrium solubility of (R)-5-carbamoylpyridin-3-yl-2-methyl-4-(3-(trifluoromethoxy)benzyl)piperazine-1-carboxylate in FaSSIF and FeSSIF (version 2) was measured to be 0.12 and 0.080 mg/mL.

[5] = physchem; details: thermodynamic from solid
[6] = Form A solubility study in FaSSIF-v2 and FeSSIF-v2 at 37° C.; assay type: physicochemical; details: for solubility at 2 h / solubility at 24 h / Final Form: 37° C.; for Final Form: residual solid by XRPD
Description: Solubility was evaluated at 2 hr and 24 hr for Form A in FaSSIF-v2 and FeSSIF-v2 at 37° C. Approximately 40 mg of Form A sample was added in 2.0 mL of corresponding bio-medium to form a suspension, followed by shaking at 500 rpm at 37° C. After 2 hr and 24 hr, the supernatants were isolated by centrifugation (7000 rpm for 5 min) followed by filtration through […] PTFE membrane and were tested by HPLC concentration and pH. The residual solids were characterized by XRPD.

## C[C@@H]1CN(Cc2cccc(OC(F)(F)F)c2)CCN1C(=O)Oc1cncc(C(N)=O)c1 [Form A, (R)-5-carbamoylpyridin-3-yl-2-methyl-4-(3-(trifluoromethoxy)benzyl)piperazine-1-carboxylate]
[1]; 2 weeks, 25° C./60% RH
  API (RRT 1.00): 99.84 % Area
  Assay vs. 5° C. control: 101.2%
  Crystal form: Form A
  HPLC Purity: 99.84 area %
  Imp.1 (RRT 0.81): 0.07 % Area
  Imp.2 (RRT 1.04): — (—: <0.05.)
  Imp.3 (RRT 1.74): 0.09 % Area
[1]; 2 weeks, 40° C./75% RH
  API (RRT 1.00): 99.78 % Area
  Assay vs. 5° C. control: 98.1%
  Crystal form: Form A
  HPLC Purity: 99.78 area %
  Imp.1 (RRT 0.81): 0.08 % Area
  Imp.2 (RRT 1.04): 0.07 % Area
  Imp.3 (RRT 1.74): 0.07 % Area
[1]; 3 months, 25° C./60% RH
  API (RRT 1.00): 99.86 % Area
  Assay vs. 5° C. control: 97.3%
  Chiral Purity: 100
  Crystal form: Form A
  HPLC Purity: 99.86 area %
  Imp.1 (RRT 0.81): 0.09 % Area
  Imp.3 (RRT 1.74): 0.05 % Area
[1]; 3 months, 40° C./75% RH
  API (RRT 1.00): 99.86 % Area
  Assay vs. 5° C. control: 96.9%
  Chiral Purity: 100
  Crystal form: Form A
  HPLC Purity: 99.86 area %
  Imp.1 (RRT 0.81): 0.09 % Area
  Imp.3 (RRT 1.74): 0.05 % Area
[1]; 4 weeks, 25° C./60% RH
  API (RRT 1.00): 99.86 % Area
  Assay vs. 5° C. control: 101.4%
  Crystal form: Form A
  HPLC Purity: 99.86 area %
  Imp.1 (RRT 0.81): 0.07 % Area
  Imp.2 (RRT 1.04): — (—: <0.05.)
  Imp.3 (RRT 1.74): 0.07 % Area
[1]; 4 weeks, 40° C./75% RH
  API (RRT 1.00): 99.86 % Area
  Assay vs. 5° C. control: 101.3%
  Crystal form: Form A
  HPLC Purity: 99.86 area %
  Imp.1 (RRT 0.81): 0.07 % Area
  Imp.2 (RRT 1.04): — (—: <0.05.)
  Imp.3 (RRT 1.74): 0.07 % Area
[1]; 6 weeks, 25° C./60% RH
  API (RRT 1.00): 99.86 % Area
  Assay vs. 5° C. control: 99.7%
  Crystal form: Form A
  HPLC Purity: 99.86 area %
  Imp.1 (RRT 0.81): 0.07 % Area
  Imp.2 (RRT 1.04): — (—: <0.05.)
  Imp.3 (RRT 1.74): 0.07 % Area
[1]; 6 weeks, 40° C./75% RH
  API (RRT 1.00): 99.86 % Area
  Assay vs. 5° C. control: 99.2%
  Crystal form: Form A
  HPLC Purity: 99.86 area %
  Imp.1 (RRT 0.81): 0.07 % Area
  Imp.2 (RRT 1.04): — (—: <0.05.)
  Imp.3 (RRT 1.74): 0.07 % Area
[1]; 25° C./60% RH and 40° C./75% RH for 3 months
  Physical and chemical stability under accelerated conditions: good physical and chemical stability
[1]; Initial
  API (RRT 1.00): 99.86 % Area
  Crystal form: Form A
  HPLC Purity: 99.86 area %
  Imp.1 (RRT 0.81): 0.09 % Area
  Imp.2 (RRT 1.04): — (—: <0.05.)
  Imp.3 (RRT 1.74): 0.05 % Area
[1]; Initial, starting material after stored at −20° C. for about 3 months
  Chiral Purity: 100*
[1]; after 3 months at both conditions (25° C./60% RH and 40° C./75% RH)
  Form change or HPLC purity decrease: no significant form change or HPLC purity decrease was observed
[2]; 25° C., between 0 and 95% RH
  Form change after the DVS test (XRPD comparison): no form change was observed
[2]; 25° C./80% RH
  Water uptake (DVS): 0.05%
[3]
  Thermodynamic stability relationship among forms A to E: thermodynamically the most stable form
[4]
  pKa: 5.79
[5]; organic solvent or mixture, Approximate solubility, 1,4-dioxane, RT
  solubility: > 22 mg/mL
[5]; organic solvent or mixture, Approximate solubility, 2-MeTHF, RT
  solubility: > 23 mg/mL
[5]; organic solvent or mixture, Approximate solubility, ACN, RT
  solubility: > 24 mg/mL
[5]; organic solvent or mixture, Approximate solubility, Acetone, RT
  solubility: > 17 mg/mL
[5]; organic solvent or mixture, Approximate solubility, Anisole, RT
  solubility: > 20 mg/mL
[5]; organic solvent or mixture, Approximate solubility, CHCl3, RT
  solubility: > 19 mg/mL
[5]; organic solvent or mixture, Approximate solubility, DCM, RT
  solubility: > 19 mg/mL
[5]; organic solvent or mixture, Approximate solubility, DMSO, RT
  solubility: > 20 mg/mL
[5]; organic solvent or mixture, Approximate solubility, EtOAc, RT
  solubility: > 26 mg/mL
[5]; organic solvent or mixture, Approximate solubility, EtOH, RT
  solubility: > 17 mg/mL
[5]; organic solvent or mixture, Approximate solubility, IPA, RT
  solubility: > 24 mg/mL
[5]; organic solvent or mixture, Approximate solubility, IPAC, RT
  solubility: > 21 mg/mL
[5]; organic solvent or mixture, Approximate solubility, MIBK, RT
  solubility: > 24 mg/mL
[5]; organic solvent or mixture, Approximate solubility, MTBE, RT
  solubility: 7.7 to 11.5 mg/mL (≈ 17.6 to 26.2 mM)
[5]; organic solvent or mixture, Approximate solubility, MeOH, RT
  solubility: > 23 mg/mL
[5]; organic solvent or mixture, Approximate solubility, NMP, RT
  solubility: > 21 mg/mL
[5]; organic solvent or mixture, Approximate solubility, THF, RT
  solubility: > 26 mg/mL
[5]; organic solvent or mixture, Approximate solubility, n-heptane, RT
  solubility: < 0.9 mg/mL
[5]; organic solvent or mixture, Approximate solubility, toluene, RT
  solubility: 4.5 to 6 mg/mL (≈ 10.3 to 13.7 mM)
[5]; water, Approximate solubility, H2O, RT
  solubility: > 1 mg/mL
[6]; FaSSIF-v2, thermodynamic from solid, FaSSIF (pH 6.5), 2 hr, final pH 6.5
  solubility at 2 h: 63 µg/mL (≈ 0.144 mM)
[6]; FaSSIF-v2, thermodynamic from solid, FaSSIF (pH 6.5), 24 hr, final pH 6.6
  solubility at 24 h: 63 µg/mL (≈ 0.144 mM)
[6]; FaSSIF-v2 and FeSSIF-v2, 37° C., 2 hr and 24 hr
  Form change after solubility evaluation (XRPD patterns): no form change was observed
[6]; FeSSIF-v2, thermodynamic from solid, FeSSIF (pH 5.8), 2 hr, final pH 5.9
  solubility at 2 h: 1000 µg/mL (≈ 2.28 mM)
[6]; FeSSIF-v2, thermodynamic from solid, FeSSIF (pH 5.8), 24 hr, final pH 6.0
  solubility at 24 h: 1100 µg/mL (≈ 2.51 mM)
[6]; FaSSIF (pH 6.5), 2 hr
  Final Form: Form A
[6]; FaSSIF (pH 6.5), 24 hr
  Final Form: Form A
[6]; FeSSIF (pH 5.8), 2 hr
  Final Form: Form A
[6]; FeSSIF (pH 5.8), 24 hr
  Final Form: Form A
